According to BindingDB's records for doi:10.1016/s0960-894x(03)00664-4 (Eli Lilly, 2003):

Target: Acetyl-CoA carboxylase 1 (Rattus norvegicus, UniProt P11497)
Experiment: Inhibitory concentration against rat heart ACC by the carboxylation of acetyl-CoA with [14C]-HCO3- to form [14C]-malonyl CoA; 18-40 uM

Row | SMILES | IC50 [µM]
1 | CC/C(=N\OC/C=C/Cl)C1C(=O)CC(C2CCOCC2)CC1=O (stereo not given) [2-{1-[(E)-(E)-3-Chloro-allyloxyimino]-propyl}-3-hydroxy-5-(tetrahydro-pyran-4-yl)-cyclohex-2-enone] | 40
2 | CCC/C(=N\OCC)C1C(=O)CC(C2CCCSC2)CC1=O (stereo not given) [2-{1-[(E)-Ethoxyimino]-butyl}-3-hydroxy-5-(tetrahydro-thiopyran-3-yl)-cyclohex-2-enone] | 40
3 | CCC/C(=N\OCC)C1C(=O)CC(CC(C)SCC)CC1=O (stereo not given) [2-{1-[(E)-Ethoxyimino]-butyl}-5-(2-ethylsulfanyl-propyl)-3-hydroxy-cyclohex-2-enone] | 40
4 | CCO/N=C(\CC)C1C(=O)CC(c2c(C)cc(C)cc2C)CC1=O (stereo not given) [2-{1-[(E)-Ethoxyimino]-propyl}-3-hydroxy-5-(2,4,6-trimethyl-phenyl)-cyclohex-2-enone] | 40
5 | CCSC(C)CC1CC(=O)C(/C(CC)=N/OC/C=C/Cl)C(=O)C1 (stereo not given) [clethodim] | 40
